According to ChEMBL document CHEMBL4138123, “Design, synthesis and biological evaluation of novel pyrazolochalcones as potential modulators of PI3K/Akt/mTOR pathway and inducers of apoptosis in breast cancer cells” (Eur J Med Chem, 2017):

Legend:
Assay type in all cases: functional
[1] = test system: HT-29; assay: Cytotoxicity against human HT-29 cells assessed as growth inhibition after 48 hrs by sulforhodamine B assay; conditions: HT-29, 48 h
[2] = test system: SF-268; assay: Cytotoxicity against human SF268 cells assessed as growth inhibition after 48 hrs by sulforhodamine B assay; conditions: SF-268, 48 h
[3] = test system: LOX IMVI; assay: Cytotoxicity against human LOXIMVI cells assessed as growth inhibition after 48 hrs by sulforhodamine B assay
[4] = test system: IGROV-1; assay: Cytotoxicity against human IGROV1 cells assessed as growth inhibition after 48 hrs by sulforhodamine B assay; conditions: IGROV-1, 48 h
[5] = test system: OVCAR-3; assay: Cytotoxicity against human OVCAR3 cells assessed as growth inhibition after 48 hrs by sulforhodamine B assay; conditions: OVCAR-3, 48 h
[6] = test system: Hs-578T; assay: Cytotoxicity against human Hs 578T cells assessed as growth inhibition after 48 hrs by sulforhodamine B assay
[7] = test system: SNB-19; assay: Cytotoxicity against human SNB19 cells assessed as cell growth at 0.01 uM after 48 hrs by sulforhodamine B assay relative to control; conditions: SNB-19, 48 h, read-out: Activity
[8] = test system: SF-539; assay: Cytotoxicity against human SF539 cells assessed as cell growth at 0.01 uM after 48 hrs by sulforhodamine B assay relative to control; conditions: SF-539, 48 h, read-out: Activity
[9] = test system: PC-3; assay: Cytotoxicity against human PC3 cells assessed as cell growth at 0.01 uM after 48 hrs by sulforhodamine B assay relative to control; conditions: PC-3, 48 h, read-out: Activity
[10] = test system: T47D; assay: Cytotoxicity against human T47D cells assessed as cell growth at 0.01 uM after 48 hrs by sulforhodamine B assay relative to control; conditions: read-out: Activity
[11] = test system: NCI-H322M; assay: Cytotoxicity against human NCI-H322M cells assessed as cell growth at 0.1 uM after 48 hrs by sulforhodamine B assay relative to control; conditions: read-out: Activity
[12] = test system: NCI-H522; assay: Cytotoxicity against human NCI-H522 cells assessed as cell growth at 0.1 uM after 48 hrs by sulforhodamine B assay relative to control; conditions: NCI-H522, 48 h, read-out: Activity
[13] = test system: OVCAR-5; assay: Cytotoxicity against human OVCAR5 cells assessed as cell growth at 0.1 uM after 48 hrs by sulforhodamine B assay relative to control; conditions: OVCAR-5, 48 h, read-out: Activity
[14] = test system: MCF7; assay: Cytotoxicity against human MCF7 cells assessed as cell growth at 0.1 uM after 48 hrs by sulforhodamine B assay relative to control; conditions: MCF7, 48 h, read-out: Activity
[15] = test system: SR; assay: Cytotoxicity against human SR cells assessed as cell growth at 1 uM after 48 hrs by sulforhodamine B assay relative to control; conditions: read-out: Activity
[16] = test system: HCC 2998; assay: Cytotoxicity against human HCC2998 cells assessed as cell growth at 1 uM after 48 hrs by sulforhodamine B assay relative to control; conditions: HCC 2998, 48 h, read-out: Activity
[17] = test system: HT-29; assay: Cytotoxicity against human HT-29 cells assessed as cell growth at 1 uM after 48 hrs by sulforhodamine B assay relative to control; conditions: HT-29, 48 h, read-out: Activity
[18] = test system: SW-620; assay: Cytotoxicity against human SW620 cells assessed as cell growth at 1 uM after 48 hrs by sulforhodamine B assay relative to control; conditions: SW-620, 48 h, read-out: Activity
[19] = test system: SNB-19; assay: Cytotoxicity against human SNB19 cells assessed as cell growth at 1 uM after 48 hrs by sulforhodamine B assay relative to control; conditions: SNB-19, 48 h, read-out: Activity
[20] = test system: M14; assay: Cytotoxicity against human M14 cells assessed as cell growth at 1 uM after 48 hrs by sulforhodamine B assay relative to control; conditions: M14, 48 h, read-out: Activity
[21] = test system: 786-0; assay: Cytotoxicity against human 786-0 cells assessed as cell growth at 1 uM after 48 hrs by sulforhodamine B assay relative to control; conditions: 786-0, 48 h, read-out: Activity
[22] = test system: SN12C; assay: Cytotoxicity against human SN12C cells assessed as cell growth at 1 uM after 48 hrs by sulforhodamine B assay relative to control; conditions: read-out: Activity
[23] = test system: Hs-578T; assay: Cytotoxicity against human Hs 578T cells assessed as cell growth at 1 uM after 48 hrs by sulforhodamine B assay relative to control; conditions: read-out: Activity
[24] = test system: HOP-62; assay: Cytotoxicity against human HOP62 cells assessed as cell growth at 10 uM after 48 hrs by sulforhodamine B assay relative to control; conditions: HOP-62, 48 h, read-out: Activity
[25] = test system: HT-29; assay: Cytotoxicity against human HT-29 cells assessed as cell growth at 10 uM after 48 hrs by sulforhodamine B assay relative to control; conditions: HT-29, 48 h, read-out: Activity
[26] = test system: U-251; assay: Cytotoxicity against human U251 cells assessed as cell growth at 10 uM after 48 hrs by sulforhodamine B assay relative to control; conditions: U-251, 48 h, read-out: Activity
[27] = test system: NCI/ADR-RES; assay: Cytotoxicity against human NCI/ADR-RES cells assessed as cell growth at 10 uM after 48 hrs by sulforhodamine B assay relative to control; conditions: read-out: Activity
[28] = test system: RXF 393; assay: Cytotoxicity against human RXF393 cells assessed as cell growth at 10 uM after 48 hrs by sulforhodamine B assay relative to control; conditions: RXF 393, 48 h, read-out: Activity
[29] = test system: PC-3; assay: Cytotoxicity against human PC3 cells assessed as cell growth at 10 uM after 48 hrs by sulforhodamine B assay relative to control; conditions: PC-3, 48 h, read-out: Activity
[30] = test system: MDA-MB-468; assay: Cytotoxicity against human MDA-MB-468 cells assessed as cell growth at 10 uM after 48 hrs by sulforhodamine B assay relative to control; conditions: MDA-MB-468, 48 h, read-out: Activity
[31] = test system: HL-60(TB); assay: Cytotoxicity against human HL-60(TB) cells assessed as cell growth at 100 uM after 48 hrs by sulforhodamine B assay relative to control; conditions: HL-60, 48 h, read-out: Activity
[32] = test system: SR; assay: Cytotoxicity against human SR cells assessed as cell growth at 100 uM after 48 hrs by sulforhodamine B assay relative to control; conditions: read-out: Activity
[33] = test system: HCC 2998; assay: Cytotoxicity against human HCC2998 cells assessed as cell growth at 100 uM after 48 hrs by sulforhodamine B assay relative to control; conditions: HCC 2998, 48 h, read-out: Activity
[34] = test system: HCT-15; assay: Cytotoxicity against human HCT15 cells assessed as cell growth at 100 uM after 48 hrs by sulforhodamine B assay relative to control; conditions: HCT-15, 48 h, read-out: Activity
[35] = test system: SK-MEL-28; assay: Cytotoxicity against human SK-MEL-28 cells assessed as cell growth at 100 uM after 48 hrs by sulforhodamine B assay relative to control; conditions: SK-MEL-28, 48 h, read-out: Activity
[36] = test system: OVCAR-5; assay: Cytotoxicity against human OVCAR5 cells assessed as cell growth at 100 uM after 48 hrs by sulforhodamine B assay relative to control; conditions: OVCAR-5, 48 h, read-out: Activity

COc1cc(-c2cc(/C=C/C(=O)c3ccc(F)c(F)c3)[nH]n2)cc(OC)c1OC
LC50 [1]: 40.8 µM | TGI [1]: 6.46 µM | TGI [2]: > 100 µM | CC50 ([2]; read-out: LC50 (the source's name)): > 100 µM | LC50 [3]: 41.5 µM | TGI [3]: 12.2 µM | LC50 [4]: > 100 µM | TGI [4]: 87 µM | LC50 [5]: 43.6 µM | TGI [5]: 6.25 µM | LC50 [6]: > 100 µM | TGI [6]: 36.8 µM | growth at 0.01 µM [7]: 89% | growth at 0.01 µM [8]: 100% | growth at 0.01 µM [9]: 98% | growth at 0.01 µM [10]: 95% | growth at 0.1 µM [11]: 94% | growth at 0.1 µM [12]: 99% | growth at 0.1 µM [13]: 93% | growth at 0.1 µM [14]: 98% | growth at 1 µM [15]: 84% | growth at 1 µM [16]: 99% | growth at 1 µM [17]: 103% | growth at 1 µM [18]: 93% | growth at 1 µM [19]: 82% | growth at 1 µM [20]: 86% | growth at 1 µM [21]: 93% | growth at 1 µM [22]: 89% | growth at 1 µM [23]: 86% | growth at 10 µM [24]: 25% | growth at 10 µM [25]: -24% | growth at 10 µM [26]: 7% | growth at 10 µM [27]: 11% | growth at 10 µM [28]: -20% | growth at 10 µM [29]: -23% | growth at 10 µM [30]: -2% | growth at 100 µM [31]: -49% | growth at 100 µM [32]: 8% | growth at 100 µM [33]: -11% | growth at 100 µM [34]: 2% | growth at 100 µM [35]: -39% | growth at 100 µM [36]: -24%

COc1ccc(-c2cc(/C=C/C(=O)c3ccc4c(c3)OCO4)[nH]n2)cc1OC
GI50 [1]: 1.38 µM | GI50 [2]: 2.09 µM | GI50 [3]: 1.29 µM | GI50 [4]: 3.13 µM | GI50 [5]: 1.96 µM | GI50 [6]: 3.76 µM
